These are literature values, as cited in article PMC7395068, “The evolution of strategies to minimise the risk of human drug-induced liver injury (DILI) in drug discovery and development” (Archives of Toxicology, 2020).

In one series the test system is HepG2. On the set-up: method as in Albrecht 2019. The conditions noted are these: In vitro Assay; ref Albrecht 2019; cited from earlier work.
The conditions of series [1]: cited from earlier work.
The test system of series [2] is primary human hepatocytes, NIH3T3 fibroblasts, BSEP, CYP3A4. The settings on record: In vitro Assay; ref Schadt 2015; cited from earlier work.
The test system of a further series is human hepatocytes. The conditions noted are these: In vitro Assay; ref Xu 2008; cited from earlier work.
Series [3] deals with THLE or HepG2 cells, isolated mitochondria, BSEP. The conditions noted are these: cited from earlier work.
The conditions of series [4]: cited from earlier work. This is another data set of the same source.
Series [5] has as its system PHH. The settings on record: In vitro Assay; ref Albrecht 2019; cited from earlier work.
For series [6] the following is noted: ref Chen 2011; cited from earlier work.
Series [7] deals with HepG2 cells. The settings on record: cited from earlier work.
The subject of series [8] is HepG2 cells, primary human hepatocytes. The conditions noted are these: In vitro Assay; ref Garside 2014; cited from earlier work.
For a further series, the system named is rBsep. The settings on record: In vitro Assay; ref Dawson 2012; cited from earlier work.
The subject of series [9] is HepG2 cells. The conditions noted are these: In vitro Assay; ref Persson 2013; cited from earlier work.
The next series deals with PHH spheroids. The settings on record: In vitro Assay; ref Vorrink 2018; cited from earlier work.
For series [10], the system named is THLE-Null and THLE-3A4 cells. The conditions noted are these: In vitro Assay; ref Gustafsson 2014; cited from earlier work.
The subject of series [11] is PHH. The conditions noted are these: cited from earlier work.
A further series relates to hLiMTs. The conditions noted are these: cited from earlier work.
Series [12] has as its system HepG2 C3A spheroid, BSEP, Glu/Gal in HepG2 cells, bioactivation. The conditions noted are these: cited from earlier work.
The subject of series [13] is isolated mouse liver mitochondria. The conditions noted are these: In vitro Assay; ref Porceddu 2012; cited from earlier work.
Setting [14] is: In vitro Assay, ref O'Brien 2006.

Where two headings read alike, the source gives them in different places.

On to `Clc1cccc(Cl)c1N=C1NCCN1` [clonidine], for which the “Cytotoxicity HepG2 48 hrs” value in the series on HepG2 is reported as “-VE”. In series [1] (ref Chen 2016), the “DILI +VE (5-8), DILI -VE (-4)” value is “-VE” and the DILI severity category entry is reported as “Ambiguous DILI-concern”. For the same compound, in series [2], the “Cellular toxicity (3T3 cells)” value is recorded as “-VE”, the “Combined Assay” value is reported as “-VE”, the “GSH adduct HML” value is “-VE” and the Hepatocyte cellular toxicity result is “-VE”. In series [2], the “MitoTox 3T3” value is “-VE”, the “TDI CYP3A4” value is “-VE” and the hBSEP inhibition entry was “-VE”. In addition, the “Structural based (HCI)” value in the series with human hepatocytes is “-VE”. In series [3] (In vitro Assay, ref Aleo 2019), the “Partition Hybrid HRM Score” value is “-VE” and the “Ro2 Hybrid HRM Score” value was “-VE”. In series [4] (ref Albrecht 2019), the “In vivo DILI” value was “-VE”. Further, in series [4] (ref Schadt 2015), the “In vivo DILI” value is on record as “-VE”. Also, the “In vivo DILI” value in series [4] (ref Xu 2008) is recorded as “+VE”. The “Cytotoxicity PHH 48 hrs” value in the series on PHH [5] is recorded as “-VE”. In addition, in series [6], the “DILI Score (FDA) (1-8)” value is reported as 3.

With `NC(N)=Nc1nc(CSCCC(N)=NS(N)(=O)=O)cs1` [famotidine], in the series on HepG2, the “Cytotoxicity HepG2 48 hrs” value is on record as “-VE”. Further, in [1] (ref Chen 2016), the “DILI +VE (5-8), DILI -VE (-4)” value is recorded as “+VE”. Besides, the DILI severity category entry in series [1] (ref Chen 2016) is given as “vLess-DILI-Concern”. For the same compound, the “Structural based (HCI)” value in the series on HepG2 cells [7] (setting [14]) is recorded as “+VE”; in the series on human hepatocytes it was “-VE”. Also, the “In vivo DILI” value in series [4] (ref Albrecht 2019) was “-VE”; in series [4] (ref Dawson 2012), “+VE”; in series [4] (ref Garside 2014) it was “+VE”; in series [4] (ref O'Brien 2006) it was “+VE”; in series [4] (ref Xu 2008), “-VE”. For the same compound, in the series on PHH [5], the “Cytotoxicity PHH 48 hrs” value was “-VE”. Moreover, the “Cluster 1-6 +VE Assay” value in series [8] is “-VE”. In addition, the “DILI Score (FDA) (1-8)” value in series [6] is 3. Also, the “Inhibition of rBsep cutoff<1& cmax u>.2” value in the series on rBsep is “-VE”. Also, in the series with rBsep, the “Inhibition of rBsep cutoff<3” value is listed as “-VE”.

For the compound `CC(CCc1ccccc1)NCC(O)c1ccc(O)c(C(N)=O)c1` (centres unmarked) [labetalol], the “Cytotoxicity HepG2 48 hrs” value with HepG2 is “+VE”. Besides, the “DILI +VE (5-8), DILI -VE (-4)” value in series [1] (ref Chen 2016) is given as “+VE”. Further, the DILI severity category entry in series [1] (ref Chen 2016) was “vMost-DILI-Concern”. The “Structural based (HCI)” value in the series on HepG2 cells [7] (setting [14]) is on record as “+VE”; in the series with HepG2 cells [9], “-VE”; in the series on human hepatocytes, “+VE”. In addition, the Cluser analysis result in the series with HepG2 cells [9] is reported as “-VE”. Further, the “hLiMTs ATP <20 x Cmax” value in the series on PHH spheroids is listed as “-VE”. The “In vivo DILI” value in series [4] ([…]), in series [4] (ref Albrecht 2019), in [4] (ref Aleo 2019), in [4] (ref Garside 2014), in series [4] (ref O'Brien 2006) and in series [4] (ref Persson 2013) was “+VE” in each case. The “In vivo DILI” value in series [4] (ref Vorrink 2018) and in series [4] (ref Xu 2008) was “+VE” each time. The “Cytotoxicity PHH 48 hrs” value in the series with PHH [5] is reported as “+VE”. Besides, the “Cluster 1-6 +VE Assay” value in series [8] was “+VE”. The “DILI Score (FDA) (1-8)” value in [6] was 8.

Regarding `Cc1oncc1C(=O)Nc1ccc(C(F)(F)F)cc1` [leflunomide], the “Cytotoxicity HepG2 48 hrs” value with HepG2 was “+VE”. For the same compound, in series [1] (ref Chen 2016), the “DILI +VE (5-8), DILI -VE (-4)” value is “+VE” and the DILI severity category result is on record as “vMost-DILI-Concern”. Also, in series [2], the “Cellular toxicity (3T3 cells)” value was “-VE”, the “Combined Assay” value was “-VE”, the “GSH adduct HML” value is “+VE” and the Hepatocyte cellular toxicity entry is on record as “-VE”. Moreover, in series [2], the “MitoTox 3T3” value was “-VE”, the “TDI CYP3A4” value is recorded as “-VE” and the hBSEP inhibition result is “-VE”. In the series on HepG2 cells [7] (setting [14]), the “Structural based (HCI)” value is given as “+VE”. Also, the “Structural based (HCI)” value in the series with human hepatocytes was “-VE”. Further, in series [3] (In vitro Assay, ref Aleo 2019), the “Partition Hybrid HRM Score” value is “+VE” and the “Ro2 Hybrid HRM Score” value is “+VE”. In series [4] (ref Albrecht 2019), the “In vivo DILI” value is reported as “+VE”. Also, in [4] (ref Aleo 2019), the “In vivo DILI” value is given as “+VE”. Also, the “In vivo DILI” value in [4] (ref Dawson 2012) is “+VE”. Moreover, the “In vivo DILI” value in series [4] (ref Garside 2014) is reported as “+VE”. Moreover, the “In vivo DILI” value in series [4] (ref Gustafsson 2014) is recorded as “+VE”. The “In vivo DILI” value in [4] (ref O'Brien 2006) is “+VE”. In addition, the “In vivo DILI” value in series [4] (ref Schadt 2015) is “+VE”. The “In vivo DILI” value in series [4] (ref Xu 2008) was “+VE”. In the series on PHH [5], the “Cytotoxicity PHH 48 hrs” value is given as “+VE”. In series [10], the THLE-Null entry is recorded as “-VE” and the THLE-Null/3A4 entry is reported as “-VE”. Further, the “Cluster 1-6 +VE Assay” value in series [8] is given as “-VE”. Also, the “DILI Score (FDA) (1-8)” value in [6] is 8. Also, in the series with rBsep, the “Inhibition of rBsep cutoff<1& cmax u>.2” value is listed as “-VE” and the “Inhibition of rBsep cutoff<3” value is “+VE”.

Turning to `Cc1ccnc2c1NC(=O)c1cccnc1N2C1CC1` [nevirapine], the “Cytotoxicity HepG2 48 hrs” value with HepG2 is listed as “+VE”. Also, in series [1] (ref Chen 2016), the “DILI +VE (5-8), DILI -VE (-4)” value is “+VE” and the DILI severity category result is on record as “vMost-DILI-Concern”. In series [2], the “Cellular toxicity (3T3 cells)” value is reported as “-VE”, the “Combined Assay” value is “+VE”, the “GSH adduct HML” value was “+VE” and the Hepatocyte cellular toxicity result is recorded as “-VE”. Further, in [2], the “MitoTox 3T3” value is “+VE”, the “TDI CYP3A4” value was “-VE” and the hBSEP inhibition entry is on record as “-VE”. In addition, in [3] (In vitro Assay, ref Aleo 2019), the “Partition Hybrid HRM Score” value was “+VE” and the “Ro2 Hybrid HRM Score” value is on record as “-VE”. The “In vivo DILI” value in series [4] ([…]) is “+VE”. The “In vivo DILI” value in series [4] (ref Albrecht 2019) is recorded as “+VE”. Besides, in series [4] (ref Aleo 2019), the “In vivo DILI” value is on record as “+VE”. The “In vivo DILI” value in series [4] (ref Garside 2014) is “+VE”. For the same compound, the “In vivo DILI” value in series [4] (ref Schadt 2015) is recorded as “+VE”. Also, the “Cytotoxicity PHH 48 hrs” value with PHH [5] was “+VE”. Also, in series [8], the “Cluster 1-6 +VE Assay” value is “-VE”. Besides, in series [6], the “DILI Score (FDA) (1-8)” value is 8.

On to `CS(=O)(=O)Nc1ccc([N+](=O)[O-])cc1Oc1ccccc1` [nimesulide], for which, in the series on HepG2, the “Cytotoxicity HepG2 48 hrs” value is “+VE”. Moreover, in series [1] (in vivo), the “DILI +VE (5-8), DILI -VE (-4)” value is given as “+VE” and the DILI severity category entry was “vMost-DILI-Concern”. The “Structural based (HCI)” value with HepG2 cells [7] is on record as “+VE”. The “Ro2 Hybrid HRM Score” value in series [3] is “+VE”. In addition, the “PHH ATP <100uM” value with PHH [11] is on record as “+VE (key: +VE: IC50 threshold of 100 µM)”. In the series with hLiMTs, the “hLiMTs ATP <100uM” value is recorded as “+VE (key: +VE: IC50 threshold of 100 µM)”. Further, the “hLiMTs ATP <20 x Cmax” value with PHH spheroids is on record as “+VE (IC20 < 20 × Cmax.tot cut-off)”. Further, the “Bayesian Machine Learning” value in [12] is listed as “+VE”. Besides, the “In vivo DILI” value in [4] (in vivo) was “+VE”. Further, in the series with PHH [5], the “Cytotoxicity PHH 48 hrs” value is “+VE”. In addition, in [13], the “in vitro data EC2<=1x Cmax” value is “+VE”.
